Source: patent US10946036B2, “Use of myostatin inhibitors and combination therapies” (Scholar Rock, Inc., priority 2016, dated 2021)
“Also recorded” adds a separate entry of the source. Like-named read-outs stand apart in the source and are kept apart here.

Columns and labels:
[1] = in vivo; cited from earlier work
[2] = system: preclinical models of SMA (mice); settings: cited from earlier work; for blood brain barrier (BBB) crossing: mouse, in vivo; for SMN protein levels compared to vehicle: oral dosing, brain and muscle
Δ7 mice = settings: 0.1 mg/kg/day from birth; cited from earlier work
[3] = system: dexamethasone treated mice; assay: Dexamethasone-induced muscle atrophy in mice; type: in vivo, mouse
Description: (§1) FIG. 2A and FIG. 2B provide a summary of dexamethasone-induced atrophy in mice: FIG. 2A illustrates the experimental model of single-dose SRK-015 treatment in healthy and atrophy-induced mice; FIG. 2B provides changes in gastrocnemius muscle weights measured at the indicated time points.
(§2) SRK-015 increased muscle mass in healthy animals and reduced muscle loss in a dexamethasone-induced model of atrophy. […] SRK-015 was also effective in preventing muscle loss upon dexamethasone treatment.

latent myostatin [4] = target: T1, latent myostatin (Macaca fascicularis, UniProt Q95J86); assay: Target engagement in cynomolgus serum, semi-quantitative western blot; type: in vivo, cynomolgus monkeys; settings: 3 mg/kg or 30 mg/kg weekly
T1 construct: from tissue; host or cells: cynomolgus monkey serum
Protocol: (§3) At study termination animals were sacrificed five weeks after the last dose as described in above and muscle weights were determined. Gastrocnemius and Biceps brachii muscles (FIG. 10A and FIG. 10B, respectively) show increased mass following SRK-015 treatment. Gastrocnemius weights increased 21% in the 3 mg/kg groups, and 23% in the 30 mg/kg groups relative to vehicle control. * indicates statistically significant difference from vehicle by one-way ANOVA; P<0.007. Biceps brachii weights increased 18% in the 3 mg/kg groups, and 25% in the 30 mg/kg group relative to vehicle control. * indicates statistically significant difference from vehicle by one-way ANOVA; P<0.02. […] Serum samples were collected at the indicated study day and analyzed by semi-quantitative western blot analysis. Accumulation of latent myostatin, indicative of SRK-015 binding, is evident by day 8. Target continues to accumulate as additional doses are administered. Latent myostatin levels were quantified as described in Example 7 above. The effects of SRK-015 on muscle weight indicate that even at lower end of dosage (e.g., 3 mg/kg/week) SRK-015 is at or near the level of target engagement necessary for maximal efficacy.

Activin A = assay: Binding specificity: Activin A; settings: any form
[5] = Pharmacokinetics in cynomolgus monkeys, ELISA; type: in vivo; settings: for T1/2: post-dosing period
Protocol: (§4) SRK-015 PK properties were also determined in cynomolgus monkeys. Two- to three-year old male animals (average age 34 months) were administered weekly doses of 3 mg/kg or 30 mg/kg SRK-015 for 8 weeks. Following the last dose, animals were followed for an additional five weeks in the absence of drug administration. Samples from this post-dosing period were used to calculate PK parameters. […] Antibody levels were assessed by ELISA.

scid mice = assay: Lean mass by qNMR in scid mice; type: in vivo, mouse; settings: single 5 mg/kg dose
Protocol: (§5) Male scid mice were administered a single 5 mg/kg IV dose of SRK-015. Separate cohorts of mice were sacrificed 4 hours, 2, 8, 15, 22, 29, and 56 days post dose, and serum and TA muscles collected for PK and target engagement assays. N=4 or 8 per group. SRK-015 levels were determined from serum samples taken at the indicated times after dosing. Analysis was performed using an anti-human IgG ELISA. The half-life of SRK-015 in scid mice at 5 mg/kg was ˜20.3 days.
(§6) Lean mass was measured with qNMR at the indicated timepoints after dosing. […] Target engagement was assessed by analyzing levels of latent myostatin in serum and muscle using western blot. Binding to SRK-015 results in accumulation of latent myostatin as the bound target assumes the half-life of the antibody and accumulates in circulation and in the target tissues. […] Samples from three mice from each cohort were analyzed.

murine proMyostatin = assay: Binding to murine proMyostatin; design: species or system mouse
mature BMP10 = target: T2, mature BMP10 (Homo sapiens, UniProt O95393); assay: Binding specificity: mature BMP10
T2 sequence (O95393 317-424): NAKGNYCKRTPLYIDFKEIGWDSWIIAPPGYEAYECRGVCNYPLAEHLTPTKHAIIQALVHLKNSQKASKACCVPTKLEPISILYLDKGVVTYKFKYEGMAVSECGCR

proGDF11 = proGDF11 (Homo sapiens, UniProt O95390); assay: Protease activity reporter assay using proGDF11 as substrate; type: cell-based
mature BMP9 = target: T3, mature BMP9 (Homo sapiens, UniProt Q9UK05); assay: Binding specificity: mature BMP9
T3 sequence (Q9UK05 320-429): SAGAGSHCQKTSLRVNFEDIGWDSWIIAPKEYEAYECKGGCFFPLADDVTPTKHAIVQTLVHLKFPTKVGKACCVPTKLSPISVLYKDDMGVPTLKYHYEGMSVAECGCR

mature GDF-8 = mature GDF-8 (Homo sapiens, UniProt O14793); assay: Binding specificity: mature GDF-8
Protocol: In some embodiments, suitable dosage of SRK-015 for administration in human patients for the treatment of SMA ranges between 1 and 30 mg/kg, e.g., 1-5 mg/kg, 3-5 mg/kg, 3-10 mg/kg, 5-10 mg/kg, 5-15 mg/kg, 5-20 mg/kg, 10-20 mg/kg, etc. In some embodiments, the patient is administered SRK-015 once a week, once every two weeks, once every three weeks, once a month, once every six weeks, etc.

latent myostatin [6] = target: T4, latent myostatin (Mus musculus, UniProt O08689); assay: Target engagement in serum and muscle of scid mice, western blot; type: in vivo; settings: single 5 mg/kg dose
T4 construct: from tissue; host or cells: mouse serum and tibialis anterior muscle
Protocol: as §5, §6

proMyostatin [7] = target: T5, proMyostatin (Homo sapiens, UniProt O14793); assay: proMyostatin activation reporter assay, human proMyostatin; type: cell-based
T5 construct: made in house; host or cells: mammalian expression system
Description: (§7) Antibody SRK-015P (“P” for parental) was optimized to generate SRK-015, a fully human monoclonal antibody. SRK-015 differs from its parental clone by five residues in the variable domain outside the complementarity determining region. […] Both SRK-015 and SRK-015P had similar functional activity towards human and mouse proMyostatin in the reporter assay such that EC50 values for the two antibodies in proMyostatin activation assay using human and mouse proMyostatin, are similar. […] The ability of SRK-015 to bind the myostatin prodomain and to inhibit tolloid cleavage has been shown. Purified recombinant latent myostatin was incubated with TLL-2 tolloid protease in the presence of increasing concentrations of SRK-015. Samples were separated by reducing SDS-PAGE and probed by Western blot with an antibody that recognizes the myostatin prodomain.

proMyostatin [8] = target: T5, proMyostatin; assay: proMyostatin activation assay, Smad2/3 luciferase reporter cell line; type: cell-based; settings: proMyostatin incubated with furin and mTTL-2 proteases
Description: as §7

cynomolgus monkeys = assay: Muscle weights in cynomolgus monkeys; type: in vivo
Protocol: as §4, §3

mouse proMyostatin = target: T6, mouse proMyostatin (Mus musculus, UniProt O08689); assay: proMyostatin activation reporter assay, mouse proMyostatin; type: cell-based
T6 construct: made in house; host or cells: mammalian expression system
Description: as §7

mature myostatin = mature myostatin (Homo sapiens, UniProt O14793); assay: Mature myostatin signaling in Smad2/3 reporter assay; type: cell-based
mature TGFβ1 = mature TGFβ1 (Homo sapiens, UniProt P01137); assay: Binding specificity: mature TGFβ1
GDF11 = assay: Binding specificity: GDF11; settings: any form of GDF11
healthy male mice = assay: Muscle mass in healthy mice after single dose; type: in vivo, mouse; settings: single 20 mg/kg dose, after 15 days
Description: as §1, §2

latent myostatin [9] = target: T7, latent myostatin (Homo sapiens, UniProt O14793); assay: TLL-2 tolloid cleavage of latent myostatin, Western blot; type: biochemical; settings: increasing antibody concentrations
T7 construct: Following cleavage, the growth factor and prodomain remain associated, forming a latent complex (latent myostatin)
Description: as §7

[10] = Pharmacokinetics in scid mice, anti-human IgG ELISA; type: in vivo, mouse; settings: single 5 mg/kg IV dose, serum
Protocol: as §5

Type II SMA patients = settings: cited from earlier work; for HFMSE score increase relative to placebo group: mean
SMA patients = settings: human, in vivo; cited from earlier work
[11] = system: infantile-onset SMA (type I) patients; settings: cited from earlier work
[12] = 3 mg/kg weekly x8, five weeks after last dose
[13] = 30 mg/kg weekly x8, five weeks after last dose

proGDF11, sequence (O95390 299-407): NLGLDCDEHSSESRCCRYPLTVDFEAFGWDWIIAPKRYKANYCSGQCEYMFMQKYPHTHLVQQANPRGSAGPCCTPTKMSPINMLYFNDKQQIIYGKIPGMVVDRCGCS
mature TGFβ1, sequence (P01137 279-390 limits assumed): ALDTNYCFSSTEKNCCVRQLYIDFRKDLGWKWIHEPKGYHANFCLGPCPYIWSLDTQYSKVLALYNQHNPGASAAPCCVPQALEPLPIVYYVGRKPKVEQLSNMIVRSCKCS

## CC1(C)CC(Oc2ccc(-c3ccc(-c4cn[nH]c4)cc3O)nn2)CC(C)(C)N1 [LMI070]
[1]
  preclinical toxicity findings: injuries to the peripheral nerves and spinal cord, testes, and blood vessels in the kidney

## CCc1nc(C)cn2nc(-c3cc(=O)n4cc(C5CCN(C)CC5)cc(C)c4n3)cc12 [RG7800]
[2]
  blood brain barrier (BBB) crossing: efficiently crossed the blood brain barrier
  SMN protein levels compared to vehicle: increased SMN protein levels in both brain and muscle tissues

## Cc1cn2cc(-c3cc4ccc(N5CCN(C)CC5)cc4c(=O)o3)nc2c(C)n1 [SMN-C1]
Δ7 mice
  treated mice surviving to post-natal day (PND) 52: 70%

## CCN1CCN(c2ccc3cc(-c4cn5cc(C)nc(C)c5n4)c(=O)oc3c2)C[C@@H]1C [SMN-C2]
[2]
  blood brain barrier (BBB) crossing: efficiently crossed the blood brain barrier
  SMN protein levels compared to vehicle: increased SMN protein levels in both brain and muscle tissues

## CCN1CCC(c2cc(C)c3nc(-c4cc5c(C)nc(C)cn5n4)cc(=O)n3c2)CC1 [SMN-C3]
[2]
  blood brain barrier (BBB) crossing: efficiently crossed the blood brain barrier
  SMN protein levels compared to vehicle: increased SMN protein levels in both brain and muscle tissues

## C[C@@H]1C[C@H]2[C@@H]3CCC4=CC(=O)C=C[C@]4(C)[C@@]3(F)[C@@H](O)C[C@]2(C)[C@@]1(O)C(=O)CO [dexamethasone, reference compound]
[3]; chronic administration, by day 8
  loss of muscle mass, IgG vehicle versus IgG Dex: 16%

## SRK-015: fully human monoclonal antibody optimized from SRK-015P; binds pro/latent myostatin and inhibits release of mature growth factor
Latent myostatin [4]
  target engagement in serum: engaged latent myostatin at both doses tested
Latent myostatin [4]; serum
  accumulation of latent myostatin evident by: ≤ 8 days
Activin A
  binding to Activin A: no detectable binding
[5]; 3 mg/kg weekly for 8 weeks
  AUClast: 60799 hr▪ng/ml
  Cmax: 243 ng/mL
  Tmax: 51 h
  T1/2: 12.4 h
[5]; 30 mg/kg weekly for 8 weeks
  AUClast: 1070638 hr▪ng/ml
  Cmax: 2648 ng/mL
  Tmax: 15 h
  T1/2: 22.2 h
Scid mice
  lean mass relative to IgG control: significant increase in lean mass
Murine proMyostatin
  Kd: 8.35 nM
Mature BMP10
  binding to mature BMP10: no detectable binding
proGDF11
  effect in protease activity assay with proGDF11: no effect
Mature BMP9
  binding to mature BMP9: no detectable binding
Mature GDF-8
  binding to mature GDF-8: does not bind
Latent myostatin [6]
  onset of significant target engagement in circulation: within four hours
  onset of significant target engagement in muscle: within two days
  target engagement at 56 days post-dosing: no longer observed
  target engagement sustained out to: 29 days post dose
proMyostatin [7]
  EC50 in proMyostatin activation assay, the two antibodies compared: similar
proMyostatin [8]
  release of mature myostatin, measured by luciferase expression: inhibited release of mature myostatin
Cynomolgus monkeys; [12]
  Biceps brachii weight increase relative to vehicle control: 18%
  Gastrocnemius weight increase relative to vehicle control: 21%
Cynomolgus monkeys; [13]
  Biceps brachii weight increase relative to vehicle control: 25%
  Gastrocnemius weight increase relative to vehicle control: 23%
Mouse proMyostatin
  EC50 in proMyostatin activation assay, the two antibodies compared: similar
Mature myostatin
  inhibition of mature myostatin signaling: did not inhibit
Mature TGFβ1
  binding to mature TGFβ1: no detectable binding
GDF11
  binding to GDF11: does not bind; also recorded: no detectable binding
Healthy male mice
  increase in muscle mass versus IgG control: 17.5%
Latent myostatin [9]
  tolloid-mediated cleavage of latent myostatin: inhibited the second (tolloid-mediated) proteolysis step
[3]; single 20 mg/kg dose, throughout the study
  muscle atrophy under dexamethasone: prevented muscle atrophy
[10]
  half-life: ~20.3 days

## nusinersen
Type II SMA patients; in vivo
  patients not attaining at least 3-point HFMSE improvement: 43%
Type II SMA patients
  HFMSE score increase relative to placebo group: 5.9 points
Type II SMA patients; listed as Nusinersen
  HFMSE score increase relative to placebo group: less than 6 points
SMA patients
  compound muscle action potential (CMAP) amplitudes: improvements
[11]; Type I patients
  treated patients able to sit unaided: five of 81
[11]; infantile-onset SMA (type I)
  patients reported to be non-responders: 60%
[11]; interim analysis, 0% placebo
  treated patients with improvements in motor milestones (Hammersmith Infant Neurological Examination): 41%
